Results on 18 compounds are retold here after ChEMBL document CHEMBL1127742, “Compass: predicting biological activities from molecular surface properties. Performance comparisons on a steroid benchmark” (J Med Chem, 1994).

The test has as its target T1, Sex hormone-binding globulin (Homo sapiens) (UniProt P04278).
T1 sequence (whole entry): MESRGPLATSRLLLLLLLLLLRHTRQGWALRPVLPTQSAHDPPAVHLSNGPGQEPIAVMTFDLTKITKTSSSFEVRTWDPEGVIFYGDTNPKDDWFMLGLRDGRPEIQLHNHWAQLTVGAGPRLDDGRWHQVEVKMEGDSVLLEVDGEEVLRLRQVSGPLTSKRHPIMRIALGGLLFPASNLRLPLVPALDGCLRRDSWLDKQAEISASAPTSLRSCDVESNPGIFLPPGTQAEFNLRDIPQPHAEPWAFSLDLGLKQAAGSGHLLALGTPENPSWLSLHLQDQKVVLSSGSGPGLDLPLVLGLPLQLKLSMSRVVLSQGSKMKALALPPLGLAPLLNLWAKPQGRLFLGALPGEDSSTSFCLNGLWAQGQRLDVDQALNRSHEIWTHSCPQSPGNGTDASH
Description: Binding affinity against transport protein testosterone binding globulin.

The compound `C[C@]12C[C@H](O)[C@H]3[C@@H](CCC4=CC(=O)CC[C@@]43C)[C@@H]1CC[C@@H]2C(=O)CO` registered a Log 1/K of 6.34.

Regarding `CC(=O)[C@@]1(O)CC[C@H]2[C@@H]3CCC4=CC(=O)CC[C@]4(C)[C@H]3CC[C@@]21C`, the Log 1/K amounted to 7.

`C[C@]12CC[C@H]3[C@@H](CCC4=CC(=O)CC[C@@]43C)[C@@H]1CC[C@@H]2C(=O)CO` came in with a Log 1/K of 7.38.

In turn, `CC(=O)[C@@]1(O)CC[C@H]2[C@@H]3CC=C4C[C@@H](O)CC[C@]4(C)[C@H]3CC[C@@]21C` came in with a Log 1/K of 6.36.

Compound `C[C@]12CC[C@H]3[C@@H](CCC4=CC(=O)CC[C@@]43C)[C@@H]1CC[C@@H]2O` returned a Log 1/K of 9.2.

On to `C[C@]12CCC(=O)C=C1CC[C@@H]1[C@@H]2[C@@H](O)C[C@@]2(C)[C@H]1CC[C@]2(O)C(=O)CO`, for which the Log 1/K was determined as 6.2.

The compound `C[C@]12CC[C@H](O)C[C@@H]1CC[C@@H]1[C@@H]2CC[C@]2(C)[C@@H](O)CC[C@@H]12` showed a Log 1/K of 9.11.

`C[C@]12CC[C@H](O)CC1=CCC1C2CC[C@]2(C)C(=O)CCC12` (stereo partly drawn) returned a Log 1/K of 7.82.

As to `C[C@]12CCC(=O)C[C@@H]1CC[C@@H]1[C@@H]2CC[C@]2(C)[C@@H](O)CC[C@@H]12`, the Log 1/K was determined as 9.74.

`CC(=O)[C@H]1CC[C@H]2[C@@H]3CC=C4C[C@@H](O)CC[C@]4(C)[C@H]3CC[C@]12C` yielded a Log 1/K of 7.15.

In turn, `C[C@]12CCC(=O)C=C1CC[C@@H]1[C@@H]2C(=O)C[C@@]2(C)[C@H]1CC[C@]2(O)C(=O)CO` registered a Log 1/K of 6.43.

The compound `C[C@]12CCC(=O)C=C1CC[C@@H]1[C@@H]2CC[C@]2(C)C(=O)CC[C@@H]12` yielded a Log 1/K of 7.46.

On to `C[C@]12CC[C@@H](O)C[C@@H]1CC[C@@H]1[C@@H]2CC[C@]2(C)C(=O)CC[C@@H]12`, for which the Log 1/K was determined as 7.15.

Regarding `C[C@]12CC[C@@H]3c4ccc(O)cc4CC[C@H]3[C@@H]1C[C@@H](O)[C@@H]2O`, the Log 1/K stood at 6.63.

Compound `C[C@]12CCC(=O)C=C1CC[C@@H]1[C@@H]2CC[C@@]2(C)[C@H]1CC[C@]2(O)C(=O)CO` gave a Log 1/K of 7.2.

Take `CC(=O)[C@H]1CC[C@H]2[C@@H]3CCC4=CC(=O)CC[C@]4(C)[C@H]3CC[C@]12C`: the Log 1/K was 6.94.

The compound `C[C@]12CC[C@@H](O)C[C@H]1CC[C@@H]1[C@@H]2CC[C@]2(C)C(=O)CC[C@@H]12` displayed a Log 1/K of 6.15.

On to `C[C@]12CCC(=O)C=C1CCC1C3CC[C@H](C(=O)CO)[C@@]34C[C@H](OC4O)C12` (stereo partly drawn), for which the Log 1/K was 5.32.
